From patent US11214570B2, “Pyrrolopyridine derivative, method for producing same, and use thereof” (ST PHARM CO., LTD., priority 2017, dated 2022) come the findings set out here.

One series deals with HIV-1 Clone 4736_4. As to the kind of experiment: Inhibition of HIV-1 clone 4736_4 (Raltegravir resistance mutant). The format is cell-based. The note with it: Human immunodeficiency virus 1. The protocol:
(§1) In order to look into the HIV-1 (Wild/Mutant type) inhibition effects of the compound of the invention, a test for HIV-1 (Wild/Mutant type) inhibition effect was carried out in vitro as follows according to a known method (H. Tanaka et al., J. Med. Chem., 1991, 34, 349). MT-4 cells were used as host cells, and the degree of the compound of the present invention inhibiting cytotoxicity for the virus-infected MT-4 cells was investigated.
(§2) First, MT-4 cells were dispersed in a culture medium at a concentration of 1×10^4cells/well, and HIV-1 was inoculated so that the concentration was 500 TCI50 (concentration at which 50% of the cells are infected)/well. Immediately after the inoculation, the cell dispersion was transferred in 100 μL each to a flat microtiter plate in which a sample of the compound of the invention was placed. The sample was incubated for approximately for 4 to 5 days at […], and the virus inhibition effect was determined with an MTT method. […] As a comparative compound, azidothymidine (AZT), Raltegravir, Dolutegravir, and Elvitegravir were used.

The subject of the next series is HIV-1 NL4-3 wt. Description: Inhibition of HIV-1 NL4-3 wt. The format is cell-based. The note with it: Human immunodeficiency virus 1, NL43. The protocol: as §1, §2
A further series deals with HIV-1 Clone 1556_1. Description: Inhibition of HIV-1 clone 1556_1 (Raltegravir resistance mutant). The format is cell-based. The note with it: Human immunodeficiency virus 1. The protocol: as §1, §2
In another series the test system is HIV-1 Clone 4736_2. As to the kind of experiment: microbe, parasite or virus in culture. The format is cell-based. As to conditions: Human immunodeficiency virus 1. How it is done: as §1, §2
Another series deals with HIV-1 Clone 8070_2. Description: Inhibition of HIV-1 clone 8070_2 (Raltegravir resistance mutant). As to conditions: Human immunodeficiency virus 1. The format is cell-based. The protocol:
as §1, §2

A further series has as its system HIV-1 Clone 8070_1. As to the kind of experiment: Inhibition of HIV-1 clone 8070_1 (Raltegravir resistance mutant). The format is cell-based. As to conditions: Human immunodeficiency virus 1. The protocol:
as §1, §2

Series [1] in a line: Liver microsomal stability, dog. The format is in vitro ADME. The note with it: dog liver microsome, NADPH, read-out: Dog liver (T1/2, Min). The protocol:
(§3) The in vitro metabolic stability test was conducted for the compound of Example 1 of the present invention. In order to confirm in vitro metabolic stability, liver microsomal half-life of the compound was observed. A drug compound was reacted with NADPH using a species-specific (rat, dog, monkey, and human) liver microsome containing various metabolizing enzymes, and then half-life of the drug was determined by quantifying with LC-MS/MS in minutes.
(Liver microsomes are vesicles of endoplasmic reticulum, rich in cytochrome P450 enzymes.)

The subject of series [2] is CYP1A2, CYP2C9, CYP2D6, CYP3A4 and CYPC19. As to the kind of experiment: CYP450 inhibition test (five enzymes, text summary). The format is in vitro ADME. The note with it: human liver microsomes, 10 μM. How it is done: The CYP450 inhibition test was carried out for the compound of the present invention. To human liver microsomes (0.25 mg/ml), 0.1 M phosphate buffer (pH 7.4) and drug cocktails of five drug-metabolizing enzymes (CYP1A2, CYP2C9, CYP2D6, CYP3A4 and CYPC19) (Cocktail A: Phenacetin 50 μM, S-mephenytoin 100 μM, dextromethorphan 5 nM, midazolam 2.5 μM, Cocktail B: tolbutamide 100 μM), the compound of Example 1 was added at concentrations of 0 and 10 μM, respectively, and then cultured at 37° C. for 15 minutes. Subsequently, in order to terminate the reaction, an acetonitrile solution containing an internal standard (chloropropamide) was added thereto, and resulting mixture was centrifuged (14,000 rpm, 4° C.) for 5 minutes. Supernatant was then injected into LC/MS/MS system and the metabolites of the substrate drugs were simultaneously analyzed to thereby evaluate activities of the test compound inhibiting the drug-metabolizing enzymes.

Series [3] in a line: Liver microsomal stability, rat. Format: in vitro ADME. The note with it: rat liver microsome, NADPH. The protocol:
as §3

Series [4] can be described thus: Liver microsomal stability, monkey. The format is in vitro ADME. As to conditions: monkey liver microsome, NADPH, read-out: Monkey liver (T1/2, Min). How it is done:
as §3

In the next series the target is T1, hERG K+ channel (Homo sapiens, UniProt Q12809).
T1 construct: expressed in transfected cells; host or cells: HERG-HEK293
As to the kind of experiment: hERG K+ channel assay (Patch Clamp Recording Method). The format is cell-based. The note with it: HERG-HEK293, automated planar patch clamp. The protocol:
hERG K^+ channel assay was carried out to predict cardiotoxicity for the compound of the invention. The hERG activity of the compound was measured with HERG-HEK293 using automated planar patch clamp [PatchXpress 7000A]. This method is the most well-known method for studying ion channel, in which the flow of ions through the channel is directly measured with a voltage clamp.
(In general: The hERG channel carries a current that helps repolarise heart muscle cells.)

For a further series, the system named is Wild Type HIV-1(IIIB). Description: Inhibition of wild type HIV-1(IIIB) in MT-4 cells (MTT method). The format is cell-based. How it is done: as §1, §2
For orientation: Formazan colour is commonly taken as a measure of viable cells.

Series [5] is described as follows: Pharmacokinetics test in male rats. The format is in vivo, rat. How it is done: Experiments were carried out to detect changes in in vivo kinetics including in vivo absorption, distribution, metabolism and excretion for the compound of Example 1 of the present invention. A tube was inserted into the jugular vein and femoral vein of a rat. A drug was administered into the femoral vein in the case of intravenous administration, and a drug was administered into the oral cavity in the case of oral administration. Blood was collected from the jugular vein at a predetermined time. Dose concentration was 1 mg/kg for intravenous administration, and it was 2 mg/kg for oral administration. After centrifuging blood to separate plasma, the plasma and urine samples were pretreated with an appropriate organic solvent, and then concentration of the drug was analyzed with LC-MS/MS. From the data of the drug concentration in blood relative to time which were analyzed after oral and intravenous administrations, the noncompartmental pharmacokinetic parameter was calculated with WinNonlin (Pharsight, USA).

Series [6] in a line: Liver microsomal stability, human. The format is in vitro ADME. As to conditions: human liver microsome, NADPH. How it is done: as §3
The mark [7] stands for this setting: Human immunodeficiency virus 1, IIIB, MT4, read-out: EC50: concentration of 50% inhibition of HIV infection.

Where two headings read alike, the source gives them in different places.

T1 sequence (Q12809 whole entry): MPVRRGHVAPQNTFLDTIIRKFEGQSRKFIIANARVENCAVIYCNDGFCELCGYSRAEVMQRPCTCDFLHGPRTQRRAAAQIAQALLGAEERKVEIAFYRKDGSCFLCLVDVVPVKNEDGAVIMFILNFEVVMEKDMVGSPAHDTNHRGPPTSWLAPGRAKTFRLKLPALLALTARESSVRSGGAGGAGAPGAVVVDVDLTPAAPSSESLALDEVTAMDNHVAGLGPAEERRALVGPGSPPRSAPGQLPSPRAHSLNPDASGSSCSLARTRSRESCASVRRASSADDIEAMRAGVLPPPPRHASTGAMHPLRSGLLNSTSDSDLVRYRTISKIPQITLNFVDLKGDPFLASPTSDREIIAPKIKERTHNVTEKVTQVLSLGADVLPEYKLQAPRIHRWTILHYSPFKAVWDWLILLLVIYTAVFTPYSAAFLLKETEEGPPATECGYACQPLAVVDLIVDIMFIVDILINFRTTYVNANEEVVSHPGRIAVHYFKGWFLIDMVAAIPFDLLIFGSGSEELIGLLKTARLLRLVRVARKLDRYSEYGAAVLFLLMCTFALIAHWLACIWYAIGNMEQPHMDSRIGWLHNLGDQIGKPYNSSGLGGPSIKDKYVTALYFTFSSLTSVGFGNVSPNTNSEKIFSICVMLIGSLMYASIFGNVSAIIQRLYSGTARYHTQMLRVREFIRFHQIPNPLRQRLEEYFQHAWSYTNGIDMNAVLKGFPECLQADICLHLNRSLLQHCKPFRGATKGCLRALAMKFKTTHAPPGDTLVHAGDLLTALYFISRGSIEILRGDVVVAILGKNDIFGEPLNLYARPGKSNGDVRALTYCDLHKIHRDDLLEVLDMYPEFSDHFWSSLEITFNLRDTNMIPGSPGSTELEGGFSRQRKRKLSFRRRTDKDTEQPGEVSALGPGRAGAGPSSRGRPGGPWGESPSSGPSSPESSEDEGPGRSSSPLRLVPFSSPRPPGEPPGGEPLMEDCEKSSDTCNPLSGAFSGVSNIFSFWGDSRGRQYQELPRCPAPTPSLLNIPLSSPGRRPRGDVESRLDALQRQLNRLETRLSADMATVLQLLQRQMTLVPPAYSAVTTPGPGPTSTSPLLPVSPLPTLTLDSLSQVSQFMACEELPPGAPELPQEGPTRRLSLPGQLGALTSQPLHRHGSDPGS

As to `C[C@@H]1CCO[C@H]2Cn3cc(C(=O)NCc4ccc(F)cc4F)c(=O)c(O)c3C(=O)N12` [Dolutegravir], the IC50 (commonly the midpoint of a concentration-inhibition curve) with HIV-1 Clone 4736_4 worked out at 3 nM; in the series with HIV-1 NL4-3 wt (NL4-3 wt, read-out: IC50) it was 3.2 nM; in the series on HIV-1 Clone 1556_1, 3.2 nM; with HIV-1 Clone 4736_2, 3.5 nM; in the series on HIV-1 Clone 8070_2, 4.4 nM; in the series with HIV-1 Clone 8070_1, 8.5 nM.
Take `COc1cc2c(cc1Cc1cccc(Cl)c1F)c(=O)c(C(=O)O)cn2[C@H](CO)C(C)C` [Elvitegravir]: the IC50 in the series on HIV-1 Clone 4736_4 is 320 nM; in the series on HIV-1 NL4-3 wt it was less than 0.1 nM; with HIV-1 Clone 1556_1, 276 nM; with HIV-1 Clone 4736_2 it was 410 nM; in the series with HIV-1 Clone 8070_1 it was greater than 10000 nM.
As for `Cc1nc2c(c(C)c(C)n2Cc2cnn(C)c2)c(-c2ccc(Cl)cc2)c1[C@H](OC(C)(C)C)C(=O)O` [Example 1], the IC50 in the series on HIV-1 Clone 4736_4 came out at 3.4 nM; in the series on HIV-1 NL4-3 wt, 3.6 nM; with HIV-1 Clone 1556_1 it was 3.4 nM; with HIV-1 Clone 4736_2, 1.1 nM; with HIV-1 Clone 8070_2 it was 3.4 nM; in the series with HIV-1 Clone 8070_1, 0.9 nM. Also, the half-inhibitory concentration (IC50) against hERG K+ channel was 66700 nM. For the same molecule, the half-life in series [1] (liver microsomes) was greater than 145 min; in series [3] (liver microsomes, read-out: Rat liver (T1/2, Min)) it was greater than 145 min; in series [4] (liver microsomes), 133 min; in [5] (rat, plasma, IV, 1 mg/kg) it was 8.63 h; in [5] (rat, plasma, PO, 2 mg/kg), 8.66 h; in [6] (liver microsomes, read-out: Human liver (T1/2, Min)), 136 min. For the same molecule, the “inhibitory activity against five CYP enzymes” value in series [2] was “does not exhibit an inhibitory activity”. Also, in the series on Wild Type HIV-1(IIIB) (setting [7]), the EC50 was found to be 3.23 nM. The same molecule gave a F in series [5] (PO, 2 mg/kg) of 71.8%. Besides, the AUC(0-inf) – broadly, total exposure, with the tail of the curve extrapolated – in series [5] (rat, plasma, IV, 1 mg/kg) was found to be 6.51 µM·h; in series [5] (rat, plasma, PO, 2 mg/kg) it was 10.4 µM·h. The AUC(0-t) (usually the area under the concentration-time curve up to a stated or last time point) in series [5] (rat, plasma, IV, 1 mg/kg) was determined as 6.08 µM·h; in series [5] (rat, plasma, PO, 2 mg/kg), 8.73 µM·h. For the same molecule, the clearance (commonly the rate of elimination divided by the concentration) in series [5] (rat, plasma, IV, 1 mg/kg) was 5.38 mL/min/kg. The Vd in [5] (rat, plasma, IV, 1 mg/kg, read-out: Vss) turned out to be 1.77 L/kg. The Cmax (as a rule, the highest concentration seen after dosing) in series [5] (rat, plasma, PO, 2 mg/kg) amounted to 914 nM. The Tmax (commonly the time at which the peak concentration occurs) in series [5] (rat, plasma, PO, 2 mg/kg) worked out at 3.2 h.
As to `Cc1nn(C)c(Cl)c1Cn1c(C)c(C)c2c(-c3ccc(Cl)cc3)c([C@H](OC(C)(C)C)C(=O)O)c(C)nc21` [Example 2, (S)-2-(tert-butoxy)-2-(1-((5-chloro-1,3-dimethyl-1H-pyrazol-4-yl)methyl)-4-(4-chlorophenyl)-2,3,6-trimethyl-1H-pyrrolo[2,3-b]pyridin-5-yl) acetic acid], the EC50 with Wild Type HIV-1(IIIB) (Human immunodeficiency virus 1, MT4, Wild Type HIV-1(IIIB) in MT-4 Cells, MTT method, read-out: EC50: concentration of 50% inhibition of HIV infection) was found to be 25.7 nM.
Consider `Cc1nnc(C(=O)NC(C)(C)c2nc(C(=O)NCc3ccc(F)cc3)c(O)c(=O)n2C)o1` [Raltegravir], for which the concentration for half-maximal inhibition (IC50) in the series with HIV-1 Clone 4736_4 is 351 nM; with HIV-1 NL4-3 wt, 4.6 nM; with HIV-1 Clone 1556_1, 3760 nM; in the series on HIV-1 Clone 4736_2, 351 nM; in the series on HIV-1 Clone 8070_2, 3840 nM; in the series on HIV-1 Clone 8070_1, 4320 nM. Besides, the EC50 in the series on Wild Type HIV-1(IIIB) (setting [7]) came to 5.85 nM.
Consider `C[C@]12CC[C@H]3[C@@H](CCC4=CC(=O)CC[C@@]43C)[C@@H]1CC[C@@H]2O` [Testosterone, reference compound], for which the half-life in series [1] (microsomes) was 23.6 min; in series [4] (microsomes), 13 min. Also, the “Rat liver (T1/2, Min)” value in [3] is 0.7 min. In addition, the “Human liver (T1/2, Min)” value in series [6] turned out to be 19.7 min.
